Laboratory results published in ChEMBL document CHEMBL1177713, “Discovery of 3-[2-(imidazo[1,2-b]pyridazin-3-yl)ethynyl]-4-methyl-N-{4-[(4-methylpiperazin-1-yl)methyl]-3-(trifluoromethyl)phenyl}benzamide (AP24534), a potent, orally active pan-inhibitor of breakpoint cluster region-abelson (BCR-ABL) kinase including the T315I gatekeeper mutant” (J Med Chem, 2010).

Legend:
BaF3 [1] = assay: cells; conditions: Mus musculus, BaF3, 72 h
Description: Antiproliferative activity against mouse BA/F3 cells expressing wild type ABL after 3 days by MTS assay

BaF3 [2] = assay: cells; conditions: Mus musculus, BaF3, 72 h; remark: listed apart in the source
Description: Antiproliferative activity against mouse BA/F3 cells expressing ABL T315I mutant after 3 days by MTS assay

BaF3 [3] = assay: cells; conditions: Mus musculus, BaF3, 72 h; remark: listed apart in the source
Description: Antiproliferative activity against mouse BA/F3 cells after 3 days by MTS assay

[4] = Half life in mouse at 30 mg/kg, po by LC-MS/MS analysis; conditions: in vivo
[5] = Cmax in mouse at 30 mg/kg, po by LC-MS/MS analysis; conditions: in vivo
[6] = AUC (0 to 24 hrs) in mouse at 30 mg/kg, po by LC-MS/MS analysis; conditions: plasma
[7] = Cmax in CD rat at 15 mg/kg, po by LC-MS/MS analysis; assay type: ADME, organism-based; parameters: dose 15 mg/kg, route oral; conditions: CD, in vivo
[8] = Half life in CD rat at 15 mg/kg, po by LC-MS/MS analysis; assay type: ADME, organism-based; parameters: dose 15 mg/kg, route oral; conditions: in vivo
[9] = Oral bioavailability in CD rat at 15 mg/kg by LC-MS/MS analysis; assay type: ADME, organism-based; conditions: in vivo
[10] = Volume of distribution in CD rat at 5 mg/kg, iv by LC-MS/MS analysis; assay type: ADME, organism-based; parameters: dose 5 mg/kg, route intravenous; conditions: in vivo
[11] = Tmax in CD rat at 15 mg/kg, po by LC-MS/MS analysis; assay type: ADME, organism-based; parameters: dose 15 mg/kg, route oral; conditions: in vivo
[12] = Clearance in CD rat at 5 mg/kg, iv by LC-MS/MS analysis; assay type: ADME, organism-based; parameters: dose 5 mg/kg, route intravenous; conditions: in vivo
Rattus norvegicus = assay: Dose normalized AUC (0 to 24 hrs) in CD rat at 15 mg/kg, po by LC-MS/MS analysis; assay type: ADME, organism-based; parameters: time < 24 hr, dose 15 mg/kg, route oral; conditions: in vivo
[13] = Half life in CD rat at 5 mg/kg, iv by LC-MS/MS analysis; assay type: ADME, organism-based; parameters: dose 5 mg/kg, route intravenous; conditions: in vivo
BaF3 [14] = assay: cells; conditions: Mus musculus, BaF3, 72 h; remark: listed apart in the source
Description: Antiproliferative activity against mouse BA/F3 cells expressing wild type ABL after 3 days by MTS assay in presence of 340 uM human serum albumin

SMILES | IC50 (BaF3 [1]) [nM] | IC50 (BaF3 [2]) [nM] | IC50 (BaF3 [3]) [nM] | also measured
CC(=O)Nc1cccn2c(C#Cc3cc(C(=O)Nc4cc(-n5ccnc5)cc(C(F)(F)F)c4)ccc3C)cnc12 | 11 | 44 | 7390 | 
Cc1ccc(C(=O)Nc2ccc(CN3CCN(CCF)CC3)c(C(F)(F)F)c2)cc1C#Cc1cnc2ccccn12 | 4 | 166 | 971 | 
CCN1CCN(Cc2ccc(NC(=O)c3ccc(C)c(C#Cc4cnc5ccccn45)c3)cc2C(F)(F)F)CC1 | 5.2 | 49 | 1950 | 
Cc1ccc(C(=O)Nc2cc(C(F)(F)F)ccn2)cc1/C=C/n1cnc2c(NC3CC3)ncnc21 | 4.8 |  |  | 
Cc1ccc(C(=O)Nc2ccc(CN3CCN(C(C)C)CC3)c(C(F)(F)F)c2)cc1C#Cc1cnc2ccccn12 | 8 | 43 | 1650 | 
Cc1ccc(C(=O)Nc2ccc(CN3CCN(C)CC3)c(C(F)(F)F)c2)cc1C#Cc1cnc2ncccn12 | 10 | 500 | 1500 | 
Cc1ccc(C(=O)Nc2ccc(CN3CCNC(C)C3)c(C(F)(F)F)c2)cc1C#Cc1cnc2ccccn12 (stereo not given) | 9.5 | 203 | 3970 | 
Cc1ccc(C(=O)Nc2cc(-n3ccnc3)cc(C(F)(F)F)c2)cc1/C=C/n1cnc2c(NC3CC3)ncnc21 | 4.2 |  |  | 
Cc1ccc(C(=O)Nc2cc(C(F)(F)F)on2)cc1/C=C/n1cnc2c(NC3CC3)ncnc21 | 12 | 7120 |  | 
Cc1ccc(C(=O)Nc2ccc(CN3CCCN(C)CC3)c(C(F)(F)F)c2)cc1C#Cc1cnc2ccccn12 | 8.4 | 157 | 1880 | 
Cc1ccc(C(=O)Nc2ccc(CN3CCNCC3)c(C(F)(F)F)c2)cc1C#Cc1cnc2cccnn12 | 4 | 34 | 915 | 
Cc1ccc(C(=O)Nc2ccc(CN3CCN(C)CC3)c(C(F)(F)F)c2)cc1C#Cc1cnc2[nH]ccc2c1 | 4.4 | 14 | 2020 | Cmax [7]: 71 ng/mL; half-life [8]: 14.3 h; bioavailability [9]: 15%; Vd [10]: 19.6 L/kg; Tmax [11]: 6 h; clearance [12]: 20.8 mL/min/kg; AUC (Rattus norvegicus): 119 ng·h/mL/mg/kg; half-life [13]: 10.9 h
Cc1ccc(C(=O)Nc2ccc(CN3CCN(C)CC3)c(C(F)(F)F)c2)cc1CCc1cnc2cccnn12 | 4.3 | 295 | 6000 | 
Cc1ccc(C(=O)Nc2ccc(CN3CCN(C)CC3)c(C(F)(F)F)c2)cc1/C=C/c1cnc2cccnn12 | 7.9 | 211 | 3240 | 
Cc1ccc(C(=O)Nc2cc(CN3CCN(C)CC3)cc(C(F)(F)F)c2)cc1C#Cc1cnc2ccccn12 | 11 | 232 | 5380 | 
Cc1ccc(C(=O)Nc2cccc(C(F)(F)F)c2)cc1C#Cc1cnc2cccnn12 | 10 | 1130 | 10000 | 
Cc1cn(-c2cc(NC(=O)c3ccc(C)c(/C=C/n4cnc5c(NC6CC6)ncnc54)c3)cc(C(F)(F)F)c2)cn1 | 7.3 |  |  | 
Cc1ccc(C(=O)Nc2cc(-n3ccnc3)cc(C(F)(F)F)c2)cc1C#Cc1cnc2ccccn12 | 8 | 471 | 9840 | Cmax [7]: 2350 ng/mL; half-life [8]: 21.6 h; IC50 (BaF3 [14]): 51 nM; bioavailability [9]: 42.4%; Vd [10]: 1 L/kg; Tmax [11]: 6 h; clearance [12]: 1.33 mL/min/kg; AUC (Rattus norvegicus): 5745.9 ng·h/mL/mg/kg; half-life [13]: 9.1 h
Cc1ccc(C(=O)Nc2cc(-n3cnc(CN4CCCC4)c3)cc(C(F)(F)F)c2)cc1C#Cc1cnc2ccccn12 | 9.4 | 135 | 3540 | 
Cc1ccc(C(=O)Nc2cc(-n3ccnc3CN(C)C)cc(C(F)(F)F)c2)cc1C#Cc1cnc2ccccn12 | 11 | 251 | 7010 | 
Cc1ccc(C(=O)Nc2cc(-n3ccnc3)cc(C(F)(F)F)c2)cc1C#Cc1cnc2c(N)cccn12 | 8.6 | 72 | 10000 | Cmax [7]: 234 ng/mL; half-life [8]: 5.2 h; bioavailability [9]: 5.5%; Vd [10]: 8.2 L/kg; Tmax [11]: 1 h; clearance [12]: 6 mL/min/kg; AUC (Rattus norvegicus): 151.9 ng·h/mL/mg/kg; half-life [13]: 15.8 h
Cc1ccc(C(=O)Nc2ccc(CN3CC[C@H](N(C)C)C3)c(C(F)(F)F)c2)cc1C#Cc1cnc2ccccn12 | 5.4 | 58 | 812 | 

Continued by falling IC50 (BaF3 [1]), values first:

IC50 (BaF3 [1]) [nM] | IC50 (BaF3 [2]) [nM] | IC50 (BaF3 [3]) [nM] | SMILES | also measured
3.9 | 256 | 1870 | Cc1ccc(C(=O)Nc2ccc(CN3CCN(C)CC3)c(C3CC3)c2)cc1C#Cc1cnc2cccnn12 | 
3.6 | 26 | 1570 | Cc1ccc(C(=O)Nc2ccc(CN3CCN(C)CC3)c(C(F)(F)F)c2)cc1C#Cc1cnc2ccccn12 | half-life [4]: 2.9 h; Cmax [5]: 986 ng/mL; AUC(0-t) at 24 h [6]: 11300 ng·h/mL; Cmax [7]: 149 ng/mL; half-life [8]: 24.7 h; IC50 (BaF3 [14]): 5.9 nM; bioavailability [9]: 29%; Vd [10]: 11 L/kg; Tmax [11]: 6 h; clearance [12]: 12.5 mL/min/kg; AUC (Rattus norvegicus): 386.3 ng·h/mL/mg/kg; half-life [13]: 10.2 h
3.5 | 22 | 2080 | Cc1ccc(C(=O)Nc2ccc(CN3CCNCC3)c(C(F)(F)F)c2)cc1C#Cc1cnc2ccccn12 | 
3.4 | 42 | 890 | Cc1ccc(C(=O)Nc2ccc(CN3CCN(C)CC3)c(C(F)(F)F)c2)cc1C#Cc1cnc2nc[nH]c2c1 | Cmax [7]: 32.7 ng/mL; Vd [10]: 15.9 L/kg; Tmax [11]: 6 h; clearance [12]: 34 mL/min/kg; AUC (Rattus norvegicus; BLD = below limit of detection): BLD; half-life [13]: 5.4 h
3.4 | 77 | 1010 | Cc1ccc(C(=O)Nc2ccc(OC3CCN(C)CC3)c(C(F)(F)F)c2)cc1C#Cc1cnc2ccccn12 | 
3 | 17 | 369 | Cc1ccc(C(=O)Nc2ccc(CN3CCN(C)CC3)c(C(F)(F)F)c2)cc1C#Cc1cnc2c(c1)OCC(=O)N2 | 
2.5 | 8.6 | 1870 | CN1CCN(Cc2ccc(NC(=O)c3ccc(Cl)c(C#Cc4cnc5cccnn45)c3)cc2C(F)(F)F)CC1 | half-life [4]: 2.9 h; Cmax [5]: 441 ng/mL; AUC(0-t) at 24 h [6]: 6080 ng·h/mL; Cmax [7]: 302 ng/mL; half-life [8]: 20.2 h; bioavailability [9]: 79.2%; Vd [10]: 16.7 L/kg; Tmax [11]: 6 h; clearance [12]: 19.7 mL/min/kg; AUC (Rattus norvegicus): 673.8 ng·h/mL/mg/kg; half-life [13]: 9.9 h
2.3 | 210 | 1920 | Cc1ccc(C(=O)Nc2ccc(CN3CCN(C)CC3)c(Cl)c2)cc1C#Cc1cnc2cccnn12 | 
2.3 | 42 | 1960 | Cc1ccc(C(=O)Nc2ccc(CN3CCN(CCO)CC3)c(C(F)(F)F)c2)cc1C#Cc1cnc2ccccn12 | 
2.3 | 39 | 4210 | CN1CCN(Cc2ccc(NC(=O)c3cccc(C#Cc4cnc5cccnn45)c3)cc2C(F)(F)F)CC1 | 
2.1 | 727 | 7440 | Cc1ccc(C(=O)Nc2ccc(CN3CCOCC3)c(C(F)(F)F)c2)cc1C#Cc1cnc2ccccn12 | 
2 | 50 | 1800 | Cc1ccc(NC(=O)c2ccc(CN3CCN(C)CC3)c(C(F)(F)F)c2)cc1C#Cc1cnc2ccccn12 | 
2 | 548 |  | Cc1ccc(C(=O)Nc2cc(C(F)(F)F)ccn2)cc1C#Cn1cnc2c(NC3CC3)ncnc21 | half-life [8]: 1.5 h; AUC (Rattus norvegicus): 11.8 ng·h/mL/mg/kg
1.5 | 14 | 1680 | Cc1ccc(C(=O)Nc2ccc(CN3CCN(CCO)CC3)c(C(F)(F)F)c2)cc1C#Cc1cnc2cccnn12 | half-life [4]: 2.4 h; Cmax [5]: 1330 ng/mL; AUC(0-t) at 24 h [6]: 13700 ng·h/mL; Cmax [7]: 164 ng/mL; half-life [8]: 3.4 h; bioavailability [9]: 22.3%; Vd [10]: 7.7 L/kg; Tmax [11]: 4 h; clearance [12]: 25.5 mL/min/kg; AUC (Rattus norvegicus): 145.3 ng·h/mL/mg/kg; half-life [13]: 3.5 h
1.2 | 8.8 |  | Cc1ccc(C(=O)Nc2ccc(CN3CCN(C)CC3)c(C(F)(F)F)c2)cc1C#Cc1cnc2cccnn12 [PONATINIB] | half-life [8]: 11 h; bioavailability [9]: 18.2%; Vd [10]: 9.7 L/kg; Tmax [11]: 6 h; clearance [12]: 10.8 mL/min/kg; AUC (Rattus norvegicus): 278.5 ng·h/mL/mg/kg; half-life [13]: 10.2 h
0.9 | 13 | 1290 | Cc1ccc(C(=O)Nc2ccc(CN3CCN(C)CC3)c(C(F)(F)F)c2)cc1C#Cc1cnc2cnccn12 | half-life [4]: 2.7 h; Cmax [5]: 521 ng/mL; AUC(0-t) at 24 h [6]: 2690 ng·h/mL; Cmax [7]: 57.8 ng/mL; half-life [8]: 5 h; bioavailability [9]: 16.7%; Vd [10]: 14.7 L/kg; Tmax [11]: 4 h; clearance [12]: 48.3 mL/min/kg; AUC (Rattus norvegicus): 57 ng·h/mL/mg/kg; half-life [13]: 3.5 h
